Calls of active or inactive are those of the source. The calls are words filed in the database; no cut-off is given here.
How the values were obtained:
[1] = tested on: Mus musculus; test: Antianxiety activity in mouse assessed as ataxia, catatonia, and alterations in motor activity and startle reflex at 50 mg/kg, ip after 30 to 120 mins; format: functional, organism-based; set-up: dose 50 mg/kg
[2] = tested on: Mus musculus; test: Antianxiety activity in mouse assessed as ataxia, catatonia, and alterations in motor activity and startle reflex at 100 mg/kg, ip after 30 to 120 mins; format: functional, organism-based; set-up: dose 100 mg/kg
[3] = tested on: Rattus norvegicus; test: Antipsychotic activity in ip dosed rat assessed as reduction in avoidance responding by Sidman avoidance test; format: functional
[4] = tested on: Rattus norvegicus; test: Antianxiety activity in po dosed rat assessed as punished responding by conditioned lick suppression behavioral test; format: functional; settings: read-out: MED
[5] = tested on: Rattus norvegicus; test: Antianxiety activity in ip dosed rat assessed as punished responding by conditioned lick suppression behavioral test; format: functional; settings: read-out: MED
[6] = tested on: Mus musculus; test: […] in po dosed mouse assessed as potentiation of sodium barbital-induced loss of the righting reflex in 50% mouse; format: functional
[7] = Acute toxicity in mouse measured following single po dose; format: organism-based; settings: in vivo
[8] = Acute toxicity in mouse measured following single ip dose; format: organism-based; settings: in vivo
[9] = tested on: Mus musculus; test: […] in po dosed mouse assessed as potentiation of ethanol-induced loss of the righting reflex in 50% mouse; format: functional
[10] = tested on: Rattus norvegicus; test: Anticonvulsant activity in ip dosed rat assessed as impairment of motor performance by spontaneous motor activity test; format: functional
[11] = tested on: Rattus norvegicus; test: Anticonvulsant activity in ip dosed rat assessed as impairment of motor performance by forced motor activity test; format: functional
[12] = tested on: Rhesus monkey; test: Antiaggressive activity in Rhesus monkey assessed as reduction in biting, pushing or attacking the pole responses at 2.5 to 10 mg/mg, po after 0 to 6 hrs; format: functional, organism-based; settings: Macaca mulatta
[13] = tested on: Mus musculus; test: Antiaggressive activity in mouse assessed as change in foot shock-induced fighting behavior at 80 mg/kg, po after 90 mins; format: functional
[14] = tested on: Mus musculus; test: Antiaggressive activity in mouse assessed as change in foot shock-induced fighting behavior at 20 mg/kg, po after 90 mins; format: functional
[15] = tested on: Mus musculus; test: Antiaggressive activity in mouse assessed as change in foot shock-induced fighting behavior at 20 mg/kg, po after 30 mins; format: functional
[16] = tested on: Rattus norvegicus; test: Antiaggressive activity in Long-Evans black-hooded rat assessed as suppression of muricide behavior for 2 mins period at 80 mg/kg, po; format: functional; settings: Long-Evans black-hood
[17] = tested on: Mus musculus; test: Antiaggressive activity in mouse assessed as change in foot shock-induced fighting behavior at 80 mg/kg, po after 30 mins; format: functional
[18] = tested on: Rattus norvegicus; test: Antiaggressive activity in Long-Evans black-hooded rat assessed as suppression of muricide behavior for 2 mins period at 20 mg/kg, po; format: functional; settings: Long-Evans black-hood
[19] = tested on: Rhesus monkey; test: Antiaggressive activity in Rhesus monkey assessed as reduction in biting, pushing or attacking the pole responses at 25 to 100 mg/mg, po after 0 to 6 hrs; format: functional, organism-based; settings: Macaca mulatta

Row | SMILES | Activity [1] | Activity [2] | other results
1 | Cc1ccnc2ccnn12 | inactive | inactive | 
2 | Cc1cc(C)n2ncc(C(N)=O)c2n1 | Active | Active | 
3 | Cc1cn2nccc2nc1C | inactive | inactive | 
4 | CN(C)CCCN1c2ccccc2Sc2ccc(Cl)cc21 [CHLORPROMAZINE] |  |  | ED50 [3]: 3.7 mg/kg
5 | Cc1cc(C)n2ncc(F)c2n1 | Active | Active | ED50 [3]: 40.2 mg/kg; minimal effective dose [4]: 80 mg/kg; minimal effective dose [5]: 40 mg/kg
6 | Cc1cc(C)n2nc(Cl)cc2n1 | Active | Active | 
7 | Cc1cc(C)n2ncc([N+](=O)[O-])c2n1 | inactive | inactive | 
8 | CCCc1cc(C)nc2c(Br)cnn12 | Active | Active | 
9 | CNC1=Nc2ccc(Cl)cc2C(c2ccccc2)=[N+]([O-])C1 [CHLORDIAZEPOXIDE] |  |  | HD50 [6]: 6.4 mg/kg; LD50 [7]: 939 mg/kg; LD50 [8]: 183 mg/kg; HD50 [9]: 12.6 mg/kg; ED50 [3]: 14.3 mg/kg; minimal effective dose [4]: 60 mg/kg; minimal effective dose [5]: 20 mg/kg
10 | CC(=O)Cc1cc(C)nc2ccnn12 | Active | Active | 
11 | CC(C)c1cc(C(C)C)n2ncc(Br)c2n1 | inactive | inactive | 
12 | Cc1ccn2nccc2n1 | Active | Active | 
13 | Cc1cc(C)n2ncc(S)c2n1 | inactive | inactive | 
14 | Cc1cc(C)n2ncc(N)c2n1 | inactive | inactive | 
15 | Cc1cc(C)n2ncc(S(=O)(=O)Cl)c2n1 | inactive | inactive | 
16 | Cc1cc(C)n2[nH]c(=O)cc2n1 | inactive | inactive | 
17 | Cc1cc(C)n2ncc(I)c2n1 | Active | Active | HD50 [6]: 142.8 mg/kg; ED50 [10]: 24.9 mg/kg; ED50 [11]: 19.8 mg/kg; LD50 [7]: > 3000 mg/kg; LD50 [8]: 612 mg/kg; HD50 [9]: 296.1 mg/kg; ED50 [3]: 39.1 mg/kg; minimal effective dose [4]: 120 mg/kg; minimal effective dose [5]: 20 mg/kg
18 | Cc1cc(C)n2nc(O)c(Br)c2n1 | inactive | inactive | 
19 | Cc1cc(C)n2ncc(C(N)=S)c2n1 | inactive | inactive | 
20 | Cc1cc(C)n2ncc(/C(N)=N/O)c2n1 | inactive | inactive | 
21 | FC(F)(F)c1cc(C(F)(F)F)n2nccc2n1 | inactive | inactive | 
22 | Cc1cc(C)n2nc(Br)cc2n1 | Active | Active | 

Row | SMILES | Activity [1] | Activity [2] | other results
23 | CCCCc1cc(CCCC)n2ncc(Br)c2n1 | inactive | inactive | 
24 | CCc1cc(C)nc2c(Br)cnn12 | Active | Active | 
25 | Cc1cc(C)n2ncc(S(=O)(=O)N3CCN(C)CC3)c2n1 | inactive | inactive | 
26 | Cc1cc(C)n2ncc(SC#N)c2n1 | inactive | inactive | 
27 | Brc1cnn2cccnc12 | inactive | inactive | 
28 | Cc1cc(C)n2ncc(-c3ccccc3)c2n1 | inactive | inactive | 
29 | Cc1cc(C)n2ncc(S(N)(=O)=O)c2n1 | inactive | inactive | 
30 | CCc1cc(CC)n2ncc(Br)c2n1 | Active | Active | 
31 | Cc1cn2ncc(Br)c2nc1C | inactive | inactive | 
32 | CCOC(=O)c1cnn2c(C)cc(C)nc12 | inactive | inactive | 
33 | Cc1cc(C)n2ncc(C#N)c2n1 | inactive | inactive | 
34 | c1cnc2ccnn2c1 | Active | Active | 
35 | Cc1cc(C)n2ncc(C)c2n1 | Active | Active | 
36 | Cc1cc(C)n2ncc(N=O)c2n1 | inactive | inactive | 
37 | CN1C(=O)CN=C(c2ccccc2)c2cc(Cl)ccc21 [DIAZEPAM] |  |  | HD50 [6]: 0.5 mg/kg; ED50 [10]: 9.2 mg/kg; ED50 [11]: 5.6 mg/kg; HD50 [9]: 1.5 mg/kg; ED50 [3]: 11.3 mg/kg; minimal effective dose [4]: 20 mg/kg; minimal effective dose [5]: 20 mg/kg; inhibition [12]: inactive
38 | Cc1cc(C)n2nccc2n1 | Active | Active | HD50 [6]: 118.8 mg/kg; ED50 [10]: 79 mg/kg; ED50 [11]: 65 mg/kg; LD50 [7]: 928 mg/kg; LD50 [8]: 537 mg/kg; HD50 [9]: 228.6 mg/kg; ED50 [3]: 60.3 mg/kg; minimal effective dose [4]: 60 mg/kg; minimal effective dose [5]: 40 mg/kg
39 | Cc1cc(C)n2ncc(Br)c2n1 | Active | Active | HD50 [6]: 61.9 mg/kg; Activity [13]: -8%; Activity [14]: 13%; ED50 [10]: 27.1 mg/kg; ED50 [11]: 18.4 mg/kg; LD50 [7]: 1350 mg/kg; LD50 [8]: 458 mg/kg; Activity [15]: 30%; inhibition in vivo at 80 mg/kg [16]: 60%; Activity [17]: -46%; inhibition in vivo at 20 mg/kg [18]: 0%; inhibition [19]: inactive; HD50 [9]: 236.8 mg/kg; ED50 [3]: 29.5 mg/kg; minimal effective dose [4]: 20 mg/kg; minimal effective dose [5]: 10 mg/kg
40 | Cc1ccnc2c(Br)cnn12 | inactive | inactive | 
41 | Cc1cc(C)n2ncc(C(=O)C(F)(F)F)c2n1 | inactive | inactive | 
42 | Cc1cnc2ccnn2c1 | inactive | inactive | 
43 | Cc1cc(C)n2ncc(Cl)c2n1 | Active | Active | HD50 [6]: 60.9 mg/kg; Activity [13]: -57%; Activity [14]: 22%; ED50 [10]: 38.6 mg/kg; ED50 [11]: 32.7 mg/kg; LD50 [7]: 599 mg/kg; LD50 [8]: 369 mg/kg; Activity [15]: -3%; inhibition in vivo at 80 mg/kg [16]: 80%; Activity [17]: -89%; inhibition in vivo at 20 mg/kg [18]: 0%; inhibition [19]: inactive; HD50 [9]: 391.7 mg/kg; ED50 [3]: 31.8 mg/kg; minimal effective dose [4]: 10 mg/kg; minimal effective dose [5]: 10 mg/kg

From ChEMBL document CHEMBL3244062, “3-Halo-5,7-dimethylpyrazolo [1,5-a]pyrimidines, a nonbenzodiazepinoid class of antianxiety agents devoid of potentiation of central nervous system depressant effects of ethanol or barbiturates” (J Med Chem, 1977)
